In data set [1] the test system is Mus musculus. The data set is described as follows: Antinociceptive activity in Kunming mouse model at 132.2 nmol/kg, sc in presence of nor-BNI by tail-flick test. In kind it is functional, organism-based.
Data set [2] has as its target T1, Kappa-type opioid receptor (Homo sapiens, UniProt P41145). As to the kind of experiment: Agonist activity at human KOR expressed in CHO-K1 cells co-expressing G-alpha15 upto 100 uM by calcium mobilization assay. The class given is functional, cell-based.
Data set [3] relates to Mus musculus. The data set is described as follows: Antinociceptive activity in Kunming mouse model at 132.2 nmol/kg, sc pretreated with NALM intracerebroventricularly followed by compound administration by tail-flick test. The class given is functional, organism-based.
For data set [4], the target named is T2, Mu-type opioid receptor (Homo sapiens, UniProt P35372). The data set is described as follows: Agonist activity at human MOR expressed in CHO-K1 cells co-expressing G-alpha15 by calcium mobilization assay relative to control. The class given is functional, cell-based. Particulars: filed as agonist.
T2 sequence (P35372 whole entry): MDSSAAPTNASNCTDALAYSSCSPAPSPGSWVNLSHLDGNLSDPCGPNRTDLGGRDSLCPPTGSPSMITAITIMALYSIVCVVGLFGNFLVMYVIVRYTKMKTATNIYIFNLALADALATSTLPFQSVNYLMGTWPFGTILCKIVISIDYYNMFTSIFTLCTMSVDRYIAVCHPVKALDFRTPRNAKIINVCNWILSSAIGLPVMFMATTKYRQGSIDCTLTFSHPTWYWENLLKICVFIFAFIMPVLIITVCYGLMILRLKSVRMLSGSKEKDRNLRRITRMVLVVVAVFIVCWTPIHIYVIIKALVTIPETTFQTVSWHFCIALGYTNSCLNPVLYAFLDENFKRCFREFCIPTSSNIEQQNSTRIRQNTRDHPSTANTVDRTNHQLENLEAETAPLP
For data set [5], the system named is Mus musculus. The data set is described as follows: Antinociceptive activity in Kunming mouse model at 132.2 nmol/kg, sc in presence of NTI by tail-flick test. The class given is functional, organism-based.
The target of data set [6] is T3, Delta-type opioid receptor (Homo sapiens, UniProt P41143). The data set is described as follows: Agonist activity at human DOR expressed in CHO-K1 cells co-expressing G-alpha15 by calcium mobilization assay relative to control. As to conditions: filed as agonist. The class given is functional, cell-based.
T3 sequence (P41143 whole entry): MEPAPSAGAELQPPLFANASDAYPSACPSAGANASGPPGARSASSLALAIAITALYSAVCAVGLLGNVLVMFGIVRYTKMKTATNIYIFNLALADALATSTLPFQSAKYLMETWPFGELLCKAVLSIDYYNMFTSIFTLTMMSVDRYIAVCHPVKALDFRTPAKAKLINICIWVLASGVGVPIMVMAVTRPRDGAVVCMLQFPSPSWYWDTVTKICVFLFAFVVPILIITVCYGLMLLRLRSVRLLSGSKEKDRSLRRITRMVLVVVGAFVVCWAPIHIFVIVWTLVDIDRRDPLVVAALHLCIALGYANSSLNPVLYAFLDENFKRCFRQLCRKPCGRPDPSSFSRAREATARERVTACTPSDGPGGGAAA
Data set [7] relates to Mus musculus. The data set is described as follows: Antinociceptive activity in Kunming mouse model at 132.2 nmol/kg, sc pretreated with NALM subcutaneously followed by compound administration by tail-flick test. The class given is functional, organism-based.
Data set [8] concerns Mus musculus. As to the kind of experiment: Antinociceptive activity in Kunming mouse model at 132.2 nmol/kg, sc in presence of beta-FNA by tail-flick test. The class given is functional, organism-based.
The test system of data set [9] is Mus musculus. As to the kind of experiment: Antinociceptive activity in Kunming mouse model assessed as latency of tail withdrawal at 1416 nmol/kg, sc measured for 60 mins by tail-flick test relative to control. The class given is functional. As to conditions: 1 h.
Data set [10] has as its system Mus musculus. The data set is described as follows: Antinociceptive activity in Kunming mouse model assessed as latency of tail withdrawal at 1416 nmol/kg, sc measured for 30 mins by tail-flick test relative to control. Particulars: 0.5 h. In kind it is functional.
Data set [11] has as its target T3, Delta-type opioid receptor. The data set is described as follows: Agonist activity at human DOR expressed in CHO-K1 cells co-expressing G-alpha15 by calcium mobilization assay. In kind it is functional, cell-based.
Data set [12] relates to Mus musculus. The data set is described as follows: Antinociceptive activity in Kunming mouse model assessed as latency of tail withdrawal at 1416 nmol/kg, sc measured for 10 mins by tail-flick test relative to control. In kind it is functional.
Data set [13] deals with Mus musculus. As to the kind of experiment: Antinociceptive activity in Kunming mouse model assessed as latency of tail withdrawal at 1416 nmol/kg, sc measured for 120 mins by tail-flick test relative to control. The class given is functional. Particulars: 2 h.
For data set [14], the target named is T2, Mu-type opioid receptor. The data set is described as follows: Agonist activity at human MOR expressed in CHO-K1 cells co-expressing G-alpha15 by calcium mobilization assay. In kind it is functional, cell-based.
Data set [15] concerns Mus musculus. As to the kind of experiment: Antinociceptive activity in Kunming mouse model assessed as latency of tail withdrawal at 138.8 nmol/kg, sc measured for 10 mins by tail-flick test relative to control. In kind it is functional.
The test system of data set [16] is Mus musculus. As to the kind of experiment: Antinociceptive activity in Kunming mouse model assessed as latency of tail withdrawal at 138.8 nmol/kg, sc measured for 30 mins by tail-flick test relative to control. Particulars: 0.5 h. In kind it is functional.
Data set [17] concerns Mus musculus. As to the kind of experiment: Antinociceptive activity in Kunming mouse model assessed as latency of tail withdrawal at 138.8 nmol/kg, sc measured for 60 mins by tail-flick test relative to control. In kind it is functional. Particulars: 1 h.
Data set [18] relates to Mus musculus. The data set is described as follows: Antinociceptive activity in Kunming mouse model assessed as latency of tail withdrawal at 138.8 nmol/kg, sc measured for 120 mins by tail-flick test relative to control. Particulars: 2 h. In kind it is functional.
Data set [19] addresses T1, Kappa-type opioid receptor. As to the kind of experiment: Agonist activity at human KOR expressed in CHO-K1 cells co-expressing G-alpha15 by calcium mobilization assay. In kind it is functional, cell-based.
Data set [20] is described as follows: Stability in mouse plasma assessed as half life at 0.01 mol/L measured for 72 hrs by RP-HPLC analysis. The class given is ADME, cell-free.
The test system of data set [21] is Mus musculus. As to the kind of experiment: Antinociceptive activity in Kunming mouse model at 1416 nmol/kg, sc in presence of nor-BNI by tail-flick test. In kind it is functional, organism-based.
Data set [22] concerns Mus musculus. As to the kind of experiment: Antinociceptive activity in Kunming mouse model at 1416 nmol/kg, sc pretreated with NALM subcutaneously followed by compound administration by tail-flick test. The class given is functional, organism-based.
Data set [23] relates to Mus musculus. The data set is described as follows: Antinociceptive activity in Kunming mouse model at 1416 nmol/kg, sc in presence of NTI by tail-flick test. The class given is functional, organism-based.
Data set [24] deals with Mus musculus. The data set is described as follows: Antinociceptive activity in Kunming mouse model at 1416 nmol/kg, sc in presence of beta-FNA by tail-flick test. The class given is functional, organism-based.
For data set [25], the target named is T1, Kappa-type opioid receptor. The data set is described as follows: Agonist activity at human KOR expressed in CHO-K1 cells co-expressing G-alpha15 by calcium mobilization assay relative to control. In kind it is functional, cell-based. Particulars: filed as agonist.
Data set [26] deals with Mus musculus. The data set is described as follows: Antinociceptive activity in Kunming mouse model at 1416 nmol/kg, sc pretreated with NALM intracerebroventricularly followed by compound administration by tail-flick test. In kind it is functional, organism-based.

Active and inactive are the calls of the source. The calls are words filed in the database; no cut-off is given here.

T1 sequence (P41145 whole entry): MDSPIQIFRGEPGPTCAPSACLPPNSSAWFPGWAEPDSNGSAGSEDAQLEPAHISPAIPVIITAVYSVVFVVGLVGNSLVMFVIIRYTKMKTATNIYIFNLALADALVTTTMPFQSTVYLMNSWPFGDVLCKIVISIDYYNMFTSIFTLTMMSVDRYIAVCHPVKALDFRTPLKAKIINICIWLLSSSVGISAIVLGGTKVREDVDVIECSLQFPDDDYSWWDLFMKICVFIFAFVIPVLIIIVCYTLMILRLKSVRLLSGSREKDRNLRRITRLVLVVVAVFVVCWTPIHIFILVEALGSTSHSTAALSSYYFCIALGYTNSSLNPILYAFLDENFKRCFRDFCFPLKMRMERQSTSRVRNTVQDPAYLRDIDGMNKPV

As to `NC(=O)[C@@H]1CCCN1C(=O)[C@H]1CC(=O)NCCCC[C@@H](NC(=O)[C@@H](N)Cc2ccc(O)cc2)C(=O)NCC(=O)N[C@@H](Cc2ccc3ccccc3c2)C(=O)N1`, the result in data set [1], in data set [3] and in data set [5] was Active. In addition, the result in [2], in data set [7] and in data set [8] was inactive. Besides, the maximal response (Emax) worked out at 98.6% in [4] and 110% in data set [6].

Take `NC(=O)[C@@H]1CCCN1C(=O)[C@H]1CC(=O)NCCCC[C@@H](NC(=O)[C@@H](N)Cc2ccc(O)cc2)C(=O)NCC(=O)N[C@H](Cc2ccccc2)C(=O)N1`: the MPE in data set [9] came out at 55.5%; in data set [10], 86.6%; in data set [12], 61.8%; in data set [13], 28.3%. Further, the values for the concentration giving a half-maximal response (EC50) in data set [11] and in [14] were 965 nM and 41.6 nM, respectively. For the same compound, the result in data set [2] was inactive. The Emax in data set [4] was determined as 104%; in data set [6], 72.8%.

With `Cc1ccc(C[C@@H]2NC(=O)CNC(=O)[C@H](NC(=O)[C@@H](N)Cc3ccc(O)cc3)CCCCNC(=O)C[C@@H](C(=O)N3CCC[C@@H]3C(N)=O)NC2=O)cc1`, the MPE is 44.8% in data set [15], 95.6% in data set [16], 67.1% in data set [17] and 39.2% in data set [18].

Take `NC(=O)[C@H]1CCCN1C(=O)[C@@H]1CC(=O)NCCCC[C@@H](NC(=O)[C@@H](N)Cc2ccc(O)cc2)C(=O)NCCC(=O)N[C@@H](Cc2ccccc2)C(=O)N1`: the MPE in [15] amounted to 45.6%; in data set [16] it was 92.6%; in data set [17], 71%; in [18], 40.6%.

As for `NC(=O)[C@H]1CCCN1C(=O)[C@@H]1CC(=O)NCCCC[C@@H](NC(=O)[C@@H](N)Cc2ccc(O)cc2)C(=O)NCC(=O)N(Cc2ccccc2)CC(=O)N1`, the MPE in [9] is reported as 76.3%; in data set [10], 91.4%; in data set [12] it was 46.8%; in [13], 7.7%.

For `NC(=O)[C@H]1CCCN1C(=O)[C@@H]1CC(=O)NCCCC[C@@H](NC(=O)[C@@H](N)Cc2ccc(O)cc2)C(=O)NCC(=O)N[C@@H](Cc2ccccc2)C(=O)N1`, the concentration giving a half-maximal response (EC50) in data set [19] amounted to 2.83 µM; in data set [11], 2.1 nM; in data set [14] it was 31.1 nM. Besides, the half-life at 0.01 mol/L in [20] was 2510 min.

Take `NC(=O)[C@@H]1CCCN1C(=O)[C@H]1CC(=O)NCCCC[C@@H](NC(=O)[C@@H](N)Cc2ccc(O)cc2)C(=O)NCC(=O)N[C@@H](Cc2ccccc2)C(=O)N1`: the outcome in data set [21], in data set [22] and in data set [24] was inactive. Moreover, the outcome in data set [23] and in data set [26] was Active. Besides, the maximal effect (Emax) in [4] was found to be 109%; in data set [6] it was 107%; in [25], 103%.

Take `C[C@@H]1NC(=O)[C@H](NC(=O)[C@@H](N)Cc2ccc(O)cc2)CCCCNC(=O)C[C@H](C(=O)N2CCC[C@H]2C(N)=O)NC(=O)[C@H](Cc2ccccc2)NC1=O`: the 50% effective concentration (EC50) in [19] (cho-k1) turned out to be 4.82 µM; in data set [11] (cho-k1), 52 nM; in [14] (cho-k1), 8.2 nM. Besides, the Emax in [4] worked out at 93.7%; in [6] it was 96.6%; in data set [25] it was 51.4%. Besides, the MPE in data set [15] turned out to be 70.9%; in data set [16] it was 88.9%; in data set [17], 70.1%; in data set [18], 27.4%.

The values above are taken from ChEMBL document CHEMBL5532665 (J Med Chem, 2024).
